From patent US12552790B2, “Positive modulators of the muscarinic acetylcholine receptor M4” (Vanderbilt University, priority 2023, dated 2026)

Tests used:
Human M2 = biological target: T1, Human M2 (Homo sapiens, UniProt P08172); assay: M2 cell-based functional assay, calcium mobilization (selectivity); details: for Emax at 30 µM: % ACh maximum at 30 μM; for EC50 / Human M2 EC50: M2 cell-based functional assay, calcium flux
T1 construct: expressed in transfected cells; host or cells: CHO-K1
T1 sequence (P08172 1-466): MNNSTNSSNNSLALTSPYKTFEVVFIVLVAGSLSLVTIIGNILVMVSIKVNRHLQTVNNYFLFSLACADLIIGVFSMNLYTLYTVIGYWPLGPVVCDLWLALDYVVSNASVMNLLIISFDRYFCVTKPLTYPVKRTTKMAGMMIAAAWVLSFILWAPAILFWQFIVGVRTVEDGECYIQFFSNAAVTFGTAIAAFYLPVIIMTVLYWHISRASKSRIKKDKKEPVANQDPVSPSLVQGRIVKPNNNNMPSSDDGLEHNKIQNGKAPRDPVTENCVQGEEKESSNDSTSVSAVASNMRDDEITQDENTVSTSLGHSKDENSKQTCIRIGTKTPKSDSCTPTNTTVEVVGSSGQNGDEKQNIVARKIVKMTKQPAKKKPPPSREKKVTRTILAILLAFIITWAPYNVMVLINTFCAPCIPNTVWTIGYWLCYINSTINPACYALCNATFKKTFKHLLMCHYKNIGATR
Protocol: (§1) The high throughput assay was employed to measure receptor-induced mobilization of intracellular calcium to determine compound activity. Test compound was added to cells expressing the muscarinic receptors that were loaded with calcium sensitive fluorescent dye. After a ˜2.5 minute incubation period, a submaximal (EC20) concentration of acetylcholine was added, and the response measured. This kinetic assay allows for simultaneous screening and potency determination of multiple pharmacological modes of action including agonist and potentiator activity. CHO-K1 cells stably expressing muscarinic receptors were plated in growth medium lacking G418 and hygromycin at 15,000 cells/20 μL/well in Greiner 384-well black-walled, tissue culture (TC)-treated, clear-bottom plates (Greiner Bio-One). Cells were incubated overnight at 37° C. and 5% CO2. The next day, calcium assay buffer (Hank's balanced salt solution (HBSS), 20 mM HEPES, 2.5 mM Probenecid, 4.16 mM sodium bicarbonate (Sigma-Aldrich, St. Louis, MO)) was prepared to dilute compounds, agonists, and Fluo-4-acetomethoxyester (Fluo-4-AM), fluorescent calcium indicator dye. Compounds were serially diluted 1:3 into 10 point concentration response curves in DMSO using the Bravo Liquid Handler (Agilent, Santa Clara, CA), transferred to a 384 well daughter plates using an Echo acoustic liquid handler (Beckman Coulter, Indianapolis, Indiana), and diluted in assay Buffer to a 2× final concentration. The agonist plates were prepared using acetylcholine (ACh, Sigma-Aldrich, St. Louis, MO) concentrations for the EC20 and ECMAX responses by diluting in assay buffer to a 5× final concentration. The 2× dye solution (2.3 μM) was prepared by mixing a 2.3 mM Fluo-4-AM stock in DMSO with 10% (w/v) pluronic acid F-127 in a 1:1 ratio in assay buffer. Using a microplate washer (BioTek, Winooski, VT), cells were washed with assay buffer for 3 times to remove medium. After the final wash, 20 μL of assay buffer remained in the cell plates. Immediately, 20 μL of the 2× dye solution (final 1.15 μM) was added to each well of the cell plate using a Multidrop Combi dispenser (Thermo Fisher, Waltham, MA). After cells were incubated with the dye solutions for 45 min at 37° C. in the presence of 5% CO2, the dye solutions were removed and replaced with assay buffer using a microplate washer, leaving 20 μL of assay buffer in the cell plate.
The prepared compound, agonist, and cell plates were placed inside the Functional Drug Screening System uCell (FDSS uCell, Hamamatsu, Japan) to measure the calcium flux. The triple add protocol was used to measure Ca kinetics; Compound, ACh for EC20, and ACh for EC80 adds in an order. Briefly, after establishment of a fluorescence baseline for 2 seconds (excitation, 480 nm; emission, 530 nm), first add occurred by adding 20 μL of test compound to the cells, and the response was measured for 140 seconds. This is followed by second add; 10 μL (5×) of an EC20 concentration of ACh agonist was added to the cells, and the response of the cells was measured for 125 seconds. Immediately, the third add occurred by adding […] (5×) of an EC80 concentration of ACh and the response of the cells was measured for 90 seconds. Acetylcholine-mediated maximum response (ECmax) was measured by adding 1 mM ACh as third add in the control wells. DMSO vehicle was added to the control wells in the first add for assessing ACh EC20, EC80, and ECmax responses. Calcium fluorescence was recorded as fold over basal fluorescence and raw data were normalized to the maximal response to ACh agonist. Agonist activity was analyzed as a concentration-dependent increase in calcium mobilization upon compound addition. Positive allosteric modulator activity was analyzed as a concentration-dependent increase in the EC20 acetylcholine response. Antagonist activity was analyzed as a concentration-dependent decrease in the EC80 acetylcholine response. […]

Human M4 = biological target: T2, Human M4 (Homo sapiens, UniProt P08173); assay: M4 cell-based functional assay, calcium mobilization, potentiation of ACh EC20; details: for Emax at 30 µM: % ACh maximum at 30 μM; for EC50: CHO-K1 hM4-Gqi5 cells, calcium flux, ACh EC20
T2 construct: expressed in transfected cells
T2 sequence (P08173 1-479): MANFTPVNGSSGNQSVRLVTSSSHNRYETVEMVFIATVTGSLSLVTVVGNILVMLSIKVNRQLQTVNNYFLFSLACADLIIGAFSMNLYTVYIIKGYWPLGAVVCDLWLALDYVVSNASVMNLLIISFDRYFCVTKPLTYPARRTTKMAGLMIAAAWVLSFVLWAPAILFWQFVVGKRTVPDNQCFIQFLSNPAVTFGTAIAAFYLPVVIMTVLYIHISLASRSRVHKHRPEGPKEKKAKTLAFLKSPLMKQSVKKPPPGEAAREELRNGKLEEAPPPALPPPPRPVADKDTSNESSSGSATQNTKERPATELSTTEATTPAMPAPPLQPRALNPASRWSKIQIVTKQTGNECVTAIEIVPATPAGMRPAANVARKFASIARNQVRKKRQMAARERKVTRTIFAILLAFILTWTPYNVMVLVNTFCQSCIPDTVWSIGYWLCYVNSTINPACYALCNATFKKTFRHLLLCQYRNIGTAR
Protocol: Human and rat M4 cDNAs, along with the chimeric G protein Gqi5, were transfected into Chinese hamster ovary (CHO-K1) cells purchased from the American Type Culture Collection using Lipofectamine2000. The transfected cells were subjected to selection antbiotic treatment to generate stable cell lines; G418 sulfate (1 mg/ml) for selecting M4 expressing cells and Hygromycin B (500 μg/mL) for selecting Gqi5 expressing cells. The resulting polyclones were further screened to obtain monoclones of hM4-Gqi5 and rM4-Gqi5 for compound screening assay. Stable monoclone cells were maintained in Ham's F-12 medium containing 10% heat-inactivated fetal bovine serum (FBS), 1× Antibiotic/Antimycotic, 20 mM HEPES, 500 μg/mL G418 sulfate, and 200 μg/mL Hygromycin B in 37° C. humidified incubators in the presence of 5% CO2.
as §1
The prepared compound, agonist, and cell plates were placed inside the Functional Drug Screening System uCell (FDSS uCell, Hamamatsu, Japan) to measure the calcium flux. The triple add protocol was used to measure Ca kinetics; Compound, ACh for EC20, and ACh for EC80 adds in an order. Briefly, after establishment of a fluorescence baseline for 2 seconds (excitation, 480 nm; emission, 530 nm), first add occurred by adding 20 μL of test compound to the cells, and the response was measured for 140 seconds. This is followed by second add; 10 μL (5×) of an EC20 concentration of ACh agonist was added to the cells, and the response of the cells was measured for 125 seconds. […]

**Q.** What does the source list for `[2H]C1([2H])Oc2ccc(OC3CCN(c4nc5c(c(C)c4C)C(=O)N(C)C5)CC3)cc2OC1([2H])[2H]` [Compound 12, 2-(4-((2,3-dihydrobenzo[b][1,4]dioxin-6-yl-2,2,3,3-d4)oxy)piperidin-1-yl)-3,4,6-trimethyl-6,7-dihydro-5H-pyrrolo[3,4-b]pyridin-5-one]?
**A.** Emax at 30 µM (Human M2): 54%; EC50 (Human M2): 2380 nM; Emax at 30 µM (Human M4): 103%; EC50 (Human M4): 7 nM

**Q.** `[2H]C1([2H])CC(Oc2ccc3c(c2)OC([2H])([2H])C([2H])([2H])O3)CC([2H])([2H])N1c1nc2c(cc1C)C(=O)NC2` [Compound 2, 2-(4-((2,3-dihydrobenzo[b][1,4]dioxin-6-yl-2,2,3,3-d4)oxy)piperidin-1-yl-2,2,6,6-d4)-3-methyl-6,7-dihydro-5H-pyrrolo[3,4-b]pyridin-5-one] was tested. Which Emax at 30 µM (Human M2) did it give?
**A.** 57%

**Q.** And the EC50 (Human M2)?
**A.** 567 nM

**Q.** And the Emax at 30 µM (Human M4)?
**A.** 91%

**Q.** What about the EC50 (Human M4) of the same molecule?
**A.** 3 nM

**Q.** How did the Emax at 30 µM (Human M2) turn out when `[2H]C1([2H])Oc2ccc(OC3CCN(c4nc5nn(CC)c(=O)n5cc4C)CC3)cc2OC1([2H])[2H]` [Compound A2, 7-(4-((2,3-dihydrobenzo[b][1,4]dioxin-6-yl-2,2,3,3-d4)oxy)piperidin-1-yl)-2-ethyl-6-methyl-[1,2,4]triazolo[4,3-a]pyrimidin-3(2H)-one] was run?
**A.** 70%

**Q.** What about the EC50 (Human M2) of the same molecule?
**A.** 884 nM

**Q.** And the Emax at 30 µM (Human M4)?
**A.** 82%

**Q.** And the EC50 (Human M4)?
**A.** 2 nM

**Q.** Which results are given for `[2H]C1([2H])Oc2ccc(OC3CCN(c4nc5nn(C)c(=O)n5c5c4CCC5)CC3)cc2OC1([2H])[2H]` [Compound A14, 5-(4-((2,3-dihydrobenzo[b][1,4]dioxin-6-yl-2,2,3,3-d4)oxy)piperidin-1-yl)-2-methyl-2,6,7,8-tetrahydro-1H-cyclopenta[e][1,2,4]triazolo[4,3-a]pyrimidin-1-one]?
**A.** Emax at 30 µM (Human M2): 60%; EC50 (Human M2): 2230 nM; Emax at 30 µM (Human M4): 84%; EC50 (Human M4): 3 nM

**Q.** With `[2H]C1([2H])Oc2ccc(OC3CCN(c4nc5c(cc4C)C(=O)N(C)C5)CC3)cc2OC1([2H])[2H]` [Compound 5, 2-(4-((2,3-dihydrobenzo[b][1,4]dioxin-6-yl-2,2,3,3-d4)oxy)piperidin-1-yl)-3,6-dimethyl-6,7-dihydro-5H-pyrrolo[3,4-b]pyridin-5-one] as the molecule, how does the Emax at 30 µM (Human M2) read?
**A.** 70%

**Q.** And the EC50 (Human M2)?
**A.** 219 nM

**Q.** And the Emax at 30 µM (Human M4)?
**A.** 76%

**Q.** What about the EC50 (Human M4) of the same molecule?
**A.** 4 nM

**Q.** `[2H]C1([2H])Oc2ccc(OC3CCN(c4nc5n[nH]c(=O)n5c5c4CCCC5)CC3)cc2OC1([2H])[2H]` [Compound A17, 5-(4-((2,3-dihydrobenzo[b][1,4]dioxin-6-yl-2,2,3,3-d4)oxy)piperidin-1-yl)-6,7,8,9-tetrahydro-[1,2,4]triazolo[4,3-a]quinazolin-1(2H)-one] was tested. Which “Human M2 EC50” value (Human M2) did it give?
**A.** Inactive

**Q.** What about the Emax at 30 µM (Human M4) of the same molecule?
**A.** 87%

**Q.** What about the EC50 (Human M4) of the same molecule?
**A.** 64 nM

**Q.** How did the Emax at 30 µM (Human M2) turn out when `[2H]C1([2H])Oc2ccc(OC3CCN(c4nc5c(cc4C)C(=O)OC5)CC3)cc2OC1([2H])[2H]` [Compound 8, 2-(4-((2,3-dihydrobenzo[b][1,4]dioxin-6-yl-2,2,3,3-d4)oxy)piperidin-1-yl)-3-methylfuro[3,4-b]pyridin-5(7H)-one] was run?
**A.** 56%

**Q.** What about the EC50 (Human M2) of the same molecule?
**A.** 494 nM

**Q.** And the Emax at 30 µM (Human M4)?
**A.** 104%

**Q.** And the EC50 (Human M4)?
**A.** 3 nM

**Q.** With `[2H]C([2H])([2H])n1nc2nc(N3CCC(Oc4ccc5c(c4)OC([2H])([2H])C([2H])([2H])O5)CC3)c(C)c(C3CC3)n2c1=O` [Compound A13, 5-cyclopropyl-7-(4-((2,3-dihydrobenzo[b][1,4]dioxin-6-yl-2,2,3,3-d4)oxy)piperidin-1-yl)-6-methyl-2-(methyl-d3)-[1,2,4]triazolo[4,3-a]pyrimidin-3(2H)-one] as the molecule, how does the “Human M2 EC50” value (Human M2) read?
**A.** Inactive

**Q.** What about the Emax at 30 µM (Human M4) of the same molecule?
**A.** 103%

**Q.** And the EC50 (Human M4)?
**A.** 28 nM

**Q.** For `[2H]C1([2H])Oc2ccc(OC3CCN(c4nc5nn(CCOC)c(=O)n5cc4C)CC3)cc2OC1([2H])[2H]` [Compound A3, 7-(4-((2,3-dihydrobenzo[b][1,4]dioxin-6-yl-2,2,3,3-d4)oxy)piperidin-1-yl)-2-(2-methoxyethyl)-6-methyl-[1,2,4]triazolo[4,3-a]pyrimidin-3(2H)-one], which Emax at 30 µM (Human M2) is on record?
**A.** 55%

**Q.** And the EC50 (Human M2)?
**A.** 5410 nM

**Q.** And the Emax at 30 µM (Human M4)?
**A.** 79%

**Q.** And the EC50 (Human M4)?
**A.** 8 nM

**Q.** What does the source list for `[2H]C1([2H])CC(Oc2ccc3c(c2)OCCO3)CC([2H])([2H])N1c1nc2c(cc1C)C(=O)NC2` [Compound 11, 2-(4-((2,3-dihydrobenzo[b][1,4]dioxin-6-yl)oxy)piperidin-1-yl-2,2,6,6-d4)-3-methyl-6,7-dihydro-5H-pyrrolo[3,4-b]pyridin-5-one]?
**A.** Emax at 30 µM (Human M2): 60%; EC50 (Human M2): 508 nM; Emax at 30 µM (Human M4): 73%; EC50 (Human M4): 5 nM
